Experimental data published in PubChem BioAssay AID2060891 (Molecular Pharmacology Branch, DTP, NCI, 2025).

Test system: K98450-129-R-PDC complex spheroid growth, percent test/control
Experiment: Anticancer human tumor K98450-129-R-PDC patient-derived colon adenocarcinoma cell line growth inhibition [RAS]
Details: for IC50: curve of first compound; for viability, T/C: stronger effect = lower value
In short: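 Agents were tested in combination matrices in half-log decrements from a top concentration at or near clinical Cmax (10 microM if undetermined). Targets were multi-cell spheroids of tumour lines plus HUVEC and MSC stromal cells.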

[1] = second compound 0.000949 µM, first compound 0.0316 µM
[2] = second compound 0.000949 µM, first compound 0.1 µM
[3] = second compound 0.000949 µM, first compound 0.316 µM
[4] = second compound 0.000949 µM, first compound 1 µM
[5] = second compound 0.000949 µM, first compound 3.16 µM
[6] = second compound 0.000949 µM, first compound 10 µM
[7] = second compound 0.003 µM, first compound 0.0316 µM
[8] = second compound 0.003 µM, first compound 0.1 µM
[9] = second compound 0.003 µM, first compound 0.316 µM
[10] = second compound 0.003 µM, first compound 1 µM
[11] = second compound 0.003 µM, first compound 3.16 µM
[12] = second compound 0.003 µM, first compound 10 µM
[13] = second compound 0.00949 µM, first compound 0.0316 µM
[14] = second compound 0.00949 µM, first compound 0.1 µM
[15] = second compound 0.00949 µM, first compound 0.316 µM
[16] = second compound 0.00949 µM, first compound 1 µM
[17] = second compound 0.00949 µM, first compound 3.16 µM
[18] = second compound 0.00949 µM, first compound 10 µM
[19] = second compound 0.03 µM, first compound 0.0316 µM
[20] = second compound 0.03 µM, first compound 0.1 µM
[21] = second compound 0.03 µM, first compound 0.316 µM
[22] = second compound 0.03 µM, first compound 1 µM
[23] = second compound 0.03 µM, first compound 3.16 µM
[24] = second compound 0.03 µM, first compound 10 µM
[25] = second compound 0.0949 µM, first compound 0.0316 µM
[26] = second compound 0.0949 µM, first compound 0.1 µM
[27] = second compound 0.0949 µM, first compound 0.316 µM
[28] = second compound 0.0949 µM, first compound 1 µM
[29] = second compound 0.0949 µM, first compound 3.16 µM
[30] = second compound 0.0949 µM, first compound 10 µM
[31] = second compound 0.3 µM, first compound 0.0316 µM
[32] = second compound 0.3 µM, first compound 0.1 µM
[33] = second compound 0.3 µM, first compound 0.316 µM
[34] = second compound 0.3 µM, first compound 1 µM
[35] = second compound 0.3 µM, first compound 3.16 µM
[36] = second compound 0.3 µM, first compound 10 µM
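Note: spheroids exposed to agents for seven days before the viability readout.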
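Throughout, for viability, T/C: luminescence used as a proxy for viable cell amount.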

Work on `CC1(O)CCCC1n1c(=O)c(C(F)F)cc2cnc(NC3CCN(S(C)(=O)=O)CC3)nc21` (stereo unspecified) + CCn1c(-c2cc(N3CCN(C)CC3)cnc2C(C)OC)c2c3cc(ccc31)-c1csc(n1)CC(NC(=O)C1CC1C)C(=O)N1CCCC(N1)C(=O)OCC(C)(C)C2 yielded an IC50 (second compound 0.000949 µM) greater than 10000 nM, an IC50 (second compound 0.003 µM) greater than 10000 nM and an IC50 (second compound 0.00949 µM) of 2340 nM. It also gave an IC50 (second compound 0.03 µM) of less than 31.6 nM, an IC50 (second compound 0.0949 µM) of less than 31.6 nM and an IC50 (second compound 0.3 µM) of less than 31.6 nM. The viability, T/C [1] was 97.3%, the viability, T/C [2] was 94.3% and the viability, T/C [3] was 95.8%. For the same compound, the viability, T/C [4] was 72%, the viability, T/C [5] was 72.1% and the viability, T/C [6] was 78.4%. It also gave a viability, T/C [7] of 81.7%, a viability, T/C [8] of 78.6% and a viability, T/C [9] of 60.3%. It also gave a viability, T/C [10] of 74.2%, a viability, T/C [11] of 68.3% and a viability, T/C [12] of 71%. The viability, T/C [13] was 77.1%, the viability, T/C [14] was 69.8% and the viability, T/C [15] was 60.5%. The viability, T/C [16] was 50.9%, the viability, T/C [17] was 50.5% and the viability, T/C [18] was 47.8%. The viability, T/C [19] was 47.9%, the viability, T/C [20] was 46.9% and the viability, T/C [21] was 48.4%. The viability, T/C [22] was 36.6%, the viability, T/C [23] was 35.4% and the viability, T/C [24] was 28.2%. The viability, T/C [25] was 22.6%, the viability, T/C [26] was 22.1% and the viability, T/C [27] was 18.2%. The viability, T/C [28] was 17.9%, the viability, T/C [29] was 21% and the viability, T/C [30] was 17.7%. For the same compound, the viability, T/C [31] was 11.4%, the viability, T/C [32] was 11.9% and the viability, T/C [33] was 12.3%. For the same compound, the viability, T/C [34] was 13.8%, the viability, T/C [35] was 12.7% and the viability, T/C [36] was 11.8%.

In the case of `CCN1CCN(Cc2ccc(Nc3ncc(F)c(-c4cc(F)c5nc(C)n(C(C)C)c5c4)n3)nc2)CC1` + CCn1c(-c2cc(N3CCN(C)CC3)cnc2C(C)OC)c2c3cc(ccc31)-c1csc(n1)CC(NC(=O)C1CC1C)C(=O)N1CCCC(N1)C(=O)OCC(C)(C)C2, the IC50 (second compound 0.000949 µM) is reported as greater than 1000 nM, the IC50 (second compound 0.003 µM) is reported as 723 nM and the IC50 (second compound 0.00949 µM) is reported as 73.2 nM. The IC50 (second compound 0.03 µM) was 23.7 nM, the IC50 (second compound 0.0949 µM) was less than 3.16 nM and the IC50 (second compound 0.3 µM) was less than 3.16 nM. It also gave a viability, T/C (second compound 0.000949 µM, first compound 0.00316 µM) of 75.8%, a viability, T/C (second compound 0.000949 µM, first compound 0.01 µM) of 83% and a viability, T/C [1] of 90.9%. For the same compound, the viability, T/C [2] was 80.8%, the viability, T/C [3] was 65.6% and the viability, T/C [4] was 65.6%. It also gave a viability, T/C (second compound 0.003 µM, first compound 0.00316 µM) of 95.1%, a viability, T/C (second compound 0.003 µM, first compound 0.01 µM) of 85.8% and a viability, T/C [7] of 72.5%. The viability, T/C [8] was 71%, the viability, T/C [9] was 54.1% and the viability, T/C [10] was 47.6%. The viability, T/C (second compound 0.00949 µM, first compound 0.00316 µM) was 79.8%, the viability, T/C (second compound 0.00949 µM, first compound 0.01 µM) was 64.1% and the viability, T/C [13] was 59.2%. It also gave a viability, T/C [14] of 47.7%, a viability, T/C [15] of 38.6% and a viability, T/C [16] of 33.2%. For the same compound, the viability, T/C (second compound 0.03 µM, first compound 0.00316 µM) was 49.8%, the viability, T/C (second compound 0.03 µM, first compound 0.01 µM) was 51.8% and the viability, T/C [19] was 49.7%. For the same compound, the viability, T/C [20] was 27.2%, the viability, T/C [21] was 24.4% and the viability, T/C [22] was 25.9%. For the same compound, the viability, T/C (second compound 0.0949 µM, first compound 0.00316 µM) was 18.8%, the viability, T/C (second compound 0.0949 µM, first compound 0.01 µM) was 18.5% and the viability, T/C [25] was 17.3%. It also gave a viability, T/C [26] of 14.1%, a viability, T/C [27] of 18.4% and a viability, T/C [28] of 22.8%. For the same compound, the viability, T/C (second compound 0.3 µM, first compound 0.00316 µM) was 10.8%, the viability, T/C (second compound 0.3 µM, first compound 0.01 µM) was 13.6% and the viability, T/C [31] was 11.3%. For the same compound, the viability, T/C [32] was 12.7%, the viability, T/C [33] was 16.3% and the viability, T/C [34] was 23.1%.

`C[C@@H](NC(=O)c1ncnc(N)c1Cl)c1ncc(C(=O)Nc2cc(C(F)(F)F)c(Cl)cn2)s1` + CCn1c(-c2cc(N3CCN(C)CC3)cnc2C(C)OC)c2c3cc(ccc31)-c1csc(n1)CC(NC(=O)C1CC1C)C(=O)N1CCCC(N1)C(=O)OCC(C)(C)C2 showed an IC50 (second compound 0.000949 µM) greater than 10000 nM, an IC50 (second compound 0.003 µM) greater than 10000 nM and an IC50 (second compound 0.00949 µM) greater than 10000 nM. The IC50 (second compound 0.03 µM) was greater than 10000 nM, the IC50 (second compound 0.0949 µM) was less than 31.6 nM and the IC50 (second compound 0.3 µM) was less than 31.6 nM. For the same compound, the viability, T/C [1] was 105%, the viability, T/C [2] was 103% and the viability, T/C [3] was 106%. It also gave a viability, T/C [4] of 97.2%, a viability, T/C [5] of 103% and a viability, T/C [6] of 90.5%. The viability, T/C [7] was 105%, the viability, T/C [8] was 88.8% and the viability, T/C [9] was 88.4%. For the same compound, the viability, T/C [10] was 90.7%, the viability, T/C [11] was 110% and the viability, T/C [12] was 77.1%. The viability, T/C [13] was 76.1%, the viability, T/C [14] was 70.7% and the viability, T/C [15] was 81.8%. It also gave a viability, T/C [16] of 88.8%, a viability, T/C [17] of 75.3% and a viability, T/C [18] of 62.4%. It also gave a viability, T/C [19] of 57.7%, a viability, T/C [20] of 62.3% and a viability, T/C [21] of 74.1%. It also gave a viability, T/C [22] of 67.3%, a viability, T/C [23] of 73.9% and a viability, T/C [24] of 51.5%. It also gave a viability, T/C [25] of 25.3%, a viability, T/C [26] of 31.9% and a viability, T/C [27] of 37%. It also gave a viability, T/C [28] of 31.9%, a viability, T/C [29] of 37.3% and a viability, T/C [30] of 17.8%. It also gave a viability, T/C [31] of 11.4%, a viability, T/C [32] of 14.6% and a viability, T/C [33] of 16.4%. The viability, T/C [34] was 13.5%, the viability, T/C [35] was 16% and the viability, T/C [36] was 11%.
